Values of other authors as cited in paper PMC11979273, “A phase I study to evaluate the safety, tolerability, and pharmacokinetics of HEC113995PA·H2O, a novel dual-acting serotonergic antidepressant, in healthy subjects” (Frontiers in Pharmacology, 2025).

Conditions: cited from earlier work

Structure (SMILES): N#Cc1ccc2[nH]cc(CCCCN3CCN(c4ccc5oc(C(N)=O)cc5c4)CC3)c2c1 [Vilazodone]
- AUC0-∞ (20 mg dose): 502 ng·h/mL
- Cmax (20 mg dose): 28.5 ng/mL
- Tmax (peak) (in vivo): 5 h
- t1/2 (in vivo): 24.1 h
